tested on: IL-1β production in PMA-differentiated THP-1 cells; assay: IL-1β production in PMA-differentiated THP-1 cells stimulated with gramicidin (hTHP-1 assay, 2% fetal bovine serum; Procedures 1-3); type: cell-based, human; conditions: Homo sapiens, THP-1, Table B3; hTHP-1 assay containing 2% fetal bovine serum, gramicidin stimulation, IL-1β readout; read-out: hTHP-1 IC50
Outline: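 PMA-primed THP-1 cells (20 ng/ml PMA, 16-18 h) in RPMI with 2% FBS were pre-incubated with compounds for 1 h, from 100 μM downward in 3-fold steps (0.37% DMSO final), then stimulated with 5 μM gramicidin for 2 h. IL-1β in the supernatant was quantified by HTRF.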

IC50 | SMILES
40 to 200 nM | NS(=O)(=NC(=O)Nc1c2c(cc3c1CC3)CCC2)c1cc2c(s1)CCNC2 (stereo not shown) [Example 715, N′-((2,4,5,6-tetrahydro-1H-cyclobuta[f]inden-3-yl)carbamoyl)-4,5,6,7-tetrahydrothieno[3,2-c]pyridine-2-sulfonimidamide]
200 to 1000 nM | NS(=O)(=NC(=O)Nc1c2c(cc3c1CC3)CCC2)c1sc(CN2CCC2)cc1F (stereo not shown) [Example 718, 5-(Azetidin-1-ylmethyl)-3-fluoro-N′-((2,4,5,6-tetrahydro-1H-cyclobuta[f]inden-3-yl)carbamoyl)thiophene-2-sulfonimidamide]
8 to 40 nM | CNC(c1ccc(S(N)(=O)=NC(=O)Nc2c3c(cc4c2CC4)CCC3)s1)C1CC1 (stereo not shown) [Example 719, 5-(Cyclopropyl(methylamino)methyl)-N′-((2,4,5,6-tetrahydro-1H-cyclobuta[f]inden-3-yl)carbamoyl)thiophene-2-sulfonimidamide]
40 to 200 nM | CNCc1csc(S(N)(=O)=NC(=O)Nc2c3c(cc4c2CC4)CCC3)c1 (stereo not shown) [Example 722, 4-((Methylamino)methyl)-N′-((2,4,5,6-tetrahydro-1H-cyclobuta[f]inden-3-yl)carbamoyl)thiophene-2-sulfonimidamide]
40 to 200 nM | CNC(c1ccc(S(N)(=O)=NC(=O)Nc2c3c(cc4c2CCC4)CCC3)s1)C1CC1 (stereo not shown) [Example 723, 5-(cyclopropyl(methylamino)methyl)-N′-((1,2,3,5,6,7-hexahydro-s-indacen-4-yl)carbamoyl)thiophene-2-sulfonimidamide]
40 to 200 nM | NS(=O)(=NC(=O)Nc1c2c(cc3c1CCC3)CCC2)c1cc2c(s1)CCNC2 (stereo not shown) [Example 724, N′-((1,2,3,5,6,7-hexahydro-s-indacen-4-yl)carbamoyl)-4,5,6,7-tetrahydrothieno[3,2-c]pyridine-2-sulfonimidamide]

same assay, conditions: Homo sapiens, THP-1, hTHP-1 assay containing 2% fetal bovine serum, Table B2, class symbols; read-out: IC50

SMILES | IC50
C[C@]1(c2ncc(S(N)(=O)=NC(=O)Nc3c4c(cc5c3CCC5)CCC4)s2)CNC(=O)O1 (stereo partly drawn) [Example 674, N′-((1,2,3,5,6,7-hexahydro-s-indacen-4-yl)carbamoyl)-2-((R)-5-methyl-2-oxooxazolidin-5-yl)thiazole-5-sulfonimidamide] | 40 to 200 nM
CC(=O)NC[C@@](C)(O)c1ncc(S(N)(=O)=NC(=O)Nc2c3c(cc4c2CCC4)CCC3)s1 (stereo partly drawn) [Example 675, N-((2R)-2-(5-(N′-((1,2,3,5,6,7-hexahydro-s-indacen-4-yl)carbamoyl)sulfamidimidoyl)thiazol-2-yl)-2-hydroxypropyl)acetamide] | 40 to 200 nM
CC(C)(C)OC(=O)NC[C@@](C)(O)c1ncc(S(N)(=O)=NC(=O)Nc2c3c(cc4c2CCC4)CCC3)s1 (stereo partly drawn) [Example 676, Tert-butyl ((2R)-2-(5-(N′-((1,2,3,5,6,7-hexahydro-s-indacen-4-yl)carbamoyl)sulfamidimidoyl)thiazol-2-yl)-2-hydroxypropyl)carbamate] | 40 to 200 nM
C[C@@](O)(COCCO)c1ncc(S(N)(=O)=NC(=O)Nc2c3c(cc4c2CCC4)CCC3)s1 (stereo partly drawn) [Example 677, N′-((1,2,3,5,6,7-hexahydro-s-indacen-4-yl)carbamoyl)-2-((R)-2-hydroxy-1-(2-hydroxyethoxy)propan-2-yl)thiazole-5-sulfonimidamide] | 40 to 200 nM
N#Cc1c2c(c(NC(=O)N=S(N)(=O)c3cnc(C(O)(CO)CO)s3)c3c1CCC3)CCC2 (stereo not shown) [Example 678, N′-((8-cyano-1,2,3,5,6,7-hexahydro-s-indacen-4-yl)carbamoyl)-2-(1,2,3-trihydroxypropan-2-yl)thiazole-5-sulfonimidamide] | 5000 to 30000 nM
COCc1nc(C(C)(C)O)sc1S(N)(=O)=NC(=O)Nc1c2c(c(C#N)c3c1CCC3)CCC2 (stereo not shown) [Example 679, N′-((8-cyano-1,2,3,5,6,7-hexahydro-s-indacen-4-yl)carbamoyl)-2-(2-hydroxypropan-2-yl)-4-(methoxymethyl)thiazole-5-sulfonimidamide] | 200 to 1000 nM
CC(C)(O)c1ccnc(S(N)(=O)=NC(=O)Nc2c3c(c(C#N)c4c2CCC4)CCC3)c1 (stereo not shown) [Example 681, N′-((8-cyano-1,2,3,5,6,7-hexahydro-s-indacen-4-yl)carbamoyl)-4-(2-hydroxypropan-2-yl)pyridine-2-sulfonimidamide] | 200 to 1000 nM
COc1ccc(Cn2nc(S(N)(=O)=NC(=O)Nc3c4c(cc5c3CCC5)CCC4)cc2C(C)(C)O)cc1 (stereo not shown) [Example 682, N′-((1,2,3,5,6,7-hexahydro-s-indacen-4-yl)carbamoyl)-5-(2-hydroxypropan-2-yl)-1-(4-methoxybenzyl)-1H-pyrazole-3-sulfonimidamide] | 200 to 1000 nM
C[C@@](O)(COCCOCc1ccccc1)c1ncc(S(N)(=O)=NC(=O)Nc2c3c(cc4c2CCC4)CCC3)s1 (stereo partly drawn) [Example 683, 2-((R)-1-(2-(benzyloxy)ethoxy)-2-hydroxypropan-2-yl)-N′-((1,2,3,5,6,7-hexahydro-s-indacen-4-yl)carbamoyl)thiazole-5-sulfonimidamide] | 200 to 1000 nM
COCCOC[C@@](C)(O)c1ncc(S(N)(=O)=NC(=O)Nc2c3c(cc4c2CCC4)CCC3)s1 (stereo partly drawn) [Example 684, N′-((1,2,3,5,6,7-hexahydro-s-indacen-4-yl)carbamoyl)-2-((R)-2-hydroxy-1-(2-methoxyethoxy)propan-2-yl)thiazole-5-sulfonimidamide] | 40 to 200 nM
C=CCNCc1ccc([S@](N)(=O)=NC(=O)Nc2c3c(cc4c2CCC4)CCC3)cc1 [Example 699, (R)-4-((allylamino)methyl)-N′-((1,2,3,5,6,7-hexahydro-s-indacen-4-yl)carbamoyl)-benzenesulfonimidamide] | 1000 to 5000 nM
CCNCc1ccc([S@](N)(=O)=NC(=O)Nc2c3c(cc4c2CCC4)CCC3)cc1 [Example 700, (R)-4-((ethylamino)methyl)-N′-((1,2,3,5,6,7-hexahydro-s-indacen-4-yl)carbamoyl)-benzenesulfonimidamide] | 1000 to 5000 nM
COCCNCc1ccc([S@](N)(=O)=NC(=O)Nc2c3c(cc4c2CCC4)CCC3)cc1 [Example 701, (R)-N′-((1,2,3,5,6,7-hexahydro-s-indacen-4-yl)carbamoyl)-4-(((2-methoxyethyl)amino)-methyl)benzenesulfonimidamide] | 1000 to 5000 nM
CCC(C)NCc1ccc([S@](N)(=O)=NC(=O)Nc2c3c(cc4c2CCC4)CCC3)cc1 (stereo partly drawn) [Example 702, (R)-4-((sec-butylamino)methyl)-N′-((1,2,3,5,6,7-hexahydro-s-indacen-4-yl)carbamoyl)-benzenesulfonimidamide] | 1000 to 5000 nM

The next lines start with the values.

IC50 | SMILES
1000 to 5000 nM | N[S@@](=O)(=NC(=O)Nc1c2c(cc3c1CCC3)CCC2)c1ccc(CNC2CCOCC2)cc1 [Example 703, (R)-N′-((1,2,3,5,6,7-hexahydro-s-indacen-4-yl)carbamoyl)-4-(((tetrahydro-2H-pyran-4-yl)-amino)methyl)benzenesulfonimidamide]
1000 to 5000 nM | N[S@@](=O)(=NC(=O)Nc1c2c(cc3c1CCC3)CCC2)c1ccc(CNC2CCCCCC2)cc1 [Example 704, (R)-4-((cycloheptylamino)methyl)-N′-((1,2,3,5,6,7-hexahydro-s-indacen-4-yl)-carbamoyl)-benzenesulfonimidamide]
1000 to 5000 nM | N[S@@](=O)(=NC(=O)Nc1c2c(cc3c1CCC3)CCC2)c1ccc(CNC2CCC2)cc1 [Example 705, (R)-4-((cyclobutylamino)methyl)-N′-((1,2,3,5,6,7-hexahydro-s-indacen-4-yl)carbamoyl)-benzenesulfonimidamide]
1000 to 5000 nM | CC(C)NCc1ccc([S@](N)(=O)=NC(=O)Nc2c3c(cc4c2CCC4)CCC3)cc1 [Example 706, (R)-N′-((1,2,3,5,6,7-hexahydro-s-indacen-4-yl)carbamoyl)-4-((isopropylamino)methyl)-benzenesulfonimidamide]
1000 to 5000 nM | CN1CCN(Cc2ccc([S@](N)(=O)=NC(=O)Nc3c4c(cc5c3CCC5)CCC4)cc2)CC1 [Example 707, (R)-N′-((1,2,3,5,6,7-hexahydro-s-indacen-4-yl)carbamoyl)-4-((4-methylpiperazin-1-yl)-methyl)benzenesulfonimidamide]
1000 to 5000 nM | N[S@@](=O)(=NC(=O)Nc1c2c(cc3c1CCC3)CCC2)c1ccc(CNCC(F)F)cc1 [Example 708, (R)-4-(((2,2-difluoroethyl)amino)methyl)-N′-((1,2,3,5,6,7-hexahydro-s-indacen-4-yl)-carbamoyl)benzenesulfonimidamide]
200 to 1000 nM | CN(Cc1ccc([S@](N)(=O)=NC(=O)Nc2c3c(cc4c2CCC4)CCC3)cc1)C1CCC1 [Example 709, (R)-4-((cyclobutyl(methyl)amino)methyl)-N′-((1,2,3,5,6,7-hexahydro-s-indacen-4-yl)-carbamoyl)benzenesulfonimidamide]
5000 to 30000 nM | COc1ccc([C@@H](C)NS(=O)(=NC(=O)Nc2c3c(cc4c2CCC4)CCC3)c2cnc(C(C)(C)O)s2)cc1 (stereo partly drawn) [Example 712, N′-((1,2,3,5,6,7-hexahydro-s-indacen-4-yl)carbamoyl)-2-(2-hydroxypropan-2-yl)-N-((R)-1-(4-methoxyphenyl)ethyl)thiazole-5-sulfonimidamide]
8 to 40 nM | C[C@](O)(CO)c1ncc([S@](N)(=O)=NC(=O)Nc2c3c(cc4c2CCC4)CCC3)s1 [Example 713, (R)-2-((S)-1,2-dihydroxypropan-2-yl)-N-((1,2,3,5,6,7-hexahydro-s-indacen-4-yl)carbamoyl)thiazole-5-sulfonimidamide]
8 to 40 nM | C[C@@](O)(CO)c1ncc([S@](N)(=O)=NC(=O)Nc2c3c(cc4c2CCC4)CCC3)s1 [Example 714, (R)-2-((R)-1,2-dihydroxypropan-2-yl)-N-((1,2,3,5,6,7-hexahydro-s-indacen-4-yl)carbamoyl)thiazole-5-sulfonimidamide]

same assay, conditions: hTHP-1 assay containing 2% fetal bovine serum, Table B2, class symbols; read-out: IC50

IC50 | SMILES
8 to 40 nM | CC(C)(O)c1cnc(S(N)(=O)=NC(=O)Nc2c3c(cc4c2CCC4=O)CCC3)s1 (stereo not shown) [Example 680, 5-(2-Hydroxypropan-2-yl)-N′-((1-oxo-1,2,3,5,6,7-hexahydro-s-indacen-4-yl)carbamoyl)thiazole-2-sulfonimidamide]

— US20230051589A1, “COMPOUNDS AND COMPOSITIONS FOR TREATING CONDITIONS ASSOCIATED WITH NLRP ACTIVITY” (Novartis AG, priority 2018, published 2023)
